Results on 23 compounds are retold here after ChEMBL document CHEMBL3046284, “Synthesis, insecticidal activity, and QSAR of novel nitromethylene neonicotinoids with tetrahydropyridine fixed cis configuration and exo-ring ether modification” (2007).

Where only a bound is given, the exact number is not on record here.

By mortality is commonly meant the share of the test organisms that died. The LC50 is the concentration that kills 50% of the test population.

For assay [1], the system named is Aphis craccivora. The experiment in a line: Insecticidal activity against Aphis craccivora (cowpea aphid) assessed as mortality at 500 mg/l measured after 24 hr. It is filed as functional.
The test system of assay [2] is Aphis craccivora. Kind of assay: Insecticidal activity against Aphis craccivora (cowpea aphid) assessed as mortality measured after 24 hr. The format is functional.

With `O=[N+]([O-])C1=C2N(Cc3ccc(Cl)nc3)CCN2C(OCc2ccccc2)CC1` (centres undefined), the mortality at 500 µg/mL in the assay with Aphis craccivora [1] is more than 90%. The LC50 in the assay with Aphis craccivora [2] is 573 µM.
On the same counts, the results for `COC1CC(C)C([N+](=O)[O-])=C2N(Cc3ccc(Cl)nc3)CCN21` (centres undefined) are more than 90% and 148 µM.
For `COC1CCC([N+](=O)[O-])=C2N(Cc3ccc(Cl)nc3)CCN21` (centres undefined), in that order: more than 90% and 132 µM.
On the same counts, the results for `CC1CC(O)N2CCN(Cc3ccc(Cl)nc3)C2=C1[N+](=O)[O-]` (centres undefined) are more than 90% and 97 µM.
For `C#CCOC1CCC([N+](=O)[O-])=C2N(Cc3ccc(Cl)nc3)CCN21` (centres undefined), the mortality at 500 µg/mL in the assay with Aphis craccivora [1] stood at 46.9%.
As to `CCCOC1CCC([N+](=O)[O-])=C2N(Cc3ccc(Cl)nc3)CCN21` (centres undefined), the mortality at 500 µg/mL with Aphis craccivora [1] is more than 90%. In addition, in the assay on Aphis craccivora [2], the LC50 was determined as 105 µM.
In the case of `O=[N+]([O-])C1=C2N(Cc3ccc(Cl)nc3)CCN2C(OC/C=C\c2ccccc2)CC1` (centres undefined), the mortality at 500 µg/mL with Aphis craccivora [1] was less than 10%.
Same read-out and setting: then `CC(C)COC1CCC([N+](=O)[O-])=C2N(Cc3ccc(Cl)nc3)CCN21` (centres undefined), with 76.3%.
On to `CC(C)=CCOC1CCC([N+](=O)[O-])=C2N(Cc3ccc(Cl)nc3)CCN21` (centres undefined), for which, in the assay on Aphis craccivora [1], the mortality at 500 µg/mL was 15.9%.
Still for that read-out and setting: then `CCOCCOC1CCC([N+](=O)[O-])=C2N(Cc3ccc(Cl)nc3)CCN21` (centres undefined), with 10.2%; and `O=[N+]([O-])C1=C2N(Cc3ccc(Cl)nc3)CCN2C(OCC(F)(F)F)CC1` (centres undefined), with 10.3%.
Take `O=[N+]([O-])C1=C2N(Cc3ccc(Cl)nc3)CCN2C(O)CC1` (centres undefined): the mortality at 500 µg/mL in the assay on Aphis craccivora [1] was more than 90%. The LC50 in the assay on Aphis craccivora [2] was determined as 188 µM.
In the case of `CC(C)OC1CCC([N+](=O)[O-])=C2N(Cc3ccc(Cl)nc3)CCN21` (centres undefined), the mortality at 500 µg/mL with Aphis craccivora [1] is more than 90%. Besides, the LC50 in the assay with Aphis craccivora [2] was 260 µM.
As to `CCC(C)OC1CCC([N+](=O)[O-])=C2N(Cc3ccc(Cl)nc3)CCN21` (centres undefined), in the assay on Aphis craccivora [1], the mortality at 500 µg/mL was less than 10%.
On to `CCOC1CC(C)C([N+](=O)[O-])=C2N(Cc3ccc(Cl)nc3)CCN21` (centres undefined), for which the mortality at 500 µg/mL in the assay on Aphis craccivora [1] was more than 90%. Further, the LC50 in the assay with Aphis craccivora [2] amounted to 186 µM.
On the same counts, the results for `O=[N+]([O-])C1=C2N(Cc3ccc(Cl)nc3)CCN2C(OCc2ccc(Cl)nc2)CC1` (centres undefined) are 50% and 1150 µM.
For `CC(C)(C)OC1CCC([N+](=O)[O-])=C2N(Cc3ccc(Cl)nc3)CCN21` (centres undefined), the mortality at 500 µg/mL in the assay on Aphis craccivora [1] stood at 72.8%.
Still for that read-out and setting: the same measure for `CCCCCOC1CCC([N+](=O)[O-])=C2N(Cc3ccc(Cl)nc3)CCN21` (centres undefined): 62.6%.
In the case of `O=[N+]([O-])/N=C1\NCCN1Cc1ccc(Cl)nc1` [IMIDACLOPRID], the mortality at 500 µg/mL with Aphis craccivora [1] was more than 90%. Moreover, the LC50 with Aphis craccivora [2] is 35 µM.
For `CCOC1CCC([N+](=O)[O-])=C2N(Cc3ccc(Cl)nc3)CCN21` (centres undefined), in the assay with Aphis craccivora [1], the mortality at 500 µg/mL is more than 90%. Further, the LC50 in the assay with Aphis craccivora [2] stood at 96 µM.
Consider `CCCCOC1CCC([N+](=O)[O-])=C2N(Cc3ccc(Cl)nc3)CCN21` (centres undefined), for which the mortality at 500 µg/mL in the assay with Aphis craccivora [1] came to 77.7%.
Still for that read-out and setting: then `CC(C)CCOC1CCC([N+](=O)[O-])=C2N(Cc3ccc(Cl)nc3)CCN21` (centres undefined), with 24.4%; and `O=[N+]([O-])C1=C2N(Cc3ccc(Cl)nc3)CCN2C(OCCCl)CC1` (centres undefined), with 44.8%.
